Experimental data reported in the NIST ThermoML archive (doi:10.1021/je2003012).
± gives the expanded uncertainty stated by the source.

Assay: relative permittivity at various frequencies (dimensionless); wn = mass fraction of the nth substance listed
Details: Liquid, direct capacitance:P =

O=C=O [carbon dioxide] + CCO
Details | relative permittivity
304.9 K, 29800 kPa, w2 = 0.152 | 2.85 ± 0.16
312.8 K, 8000 kPa, w2 = 0.212 | 2.8 ± 0.15
312.8 K, 9300 kPa, w2 = 0.212 | 2.86 ± 0.14
312.8 K, 11200 kPa, w2 = 0.212 | 2.94 ± 0.14
312.8 K, 11500 kPa, w2 = 0.212 | 2.94 ± 0.14
312.8 K, 14200 kPa, w2 = 0.212 | 3 ± 0.14
312.8 K, 14300 kPa, w2 = 0.212 | 3.01 ± 0.14
312.8 K, 14900 kPa, w2 = 0.212 | 3.03 ± 0.14
312.8 K, 15800 kPa, w2 = 0.212 | 3.05 ± 0.14
312.8 K, 17400 kPa, w2 = 0.212 | 3.11 ± 0.14
312.8 K, 18000 kPa, w2 = 0.212 | 3.14 ± 0.14
312.8 K, 20000 kPa, w2 = 0.212 | 3.17 ± 0.14
312.8 K, 20600 kPa, w2 = 0.212 | 3.18 ± 0.14
312.8 K, 22200 kPa, w2 = 0.212 | 3.22 ± 0.14
312.8 K, 22800 kPa, w2 = 0.212 | 3.23 ± 0.14
312.8 K, 23700 kPa, w2 = 0.212 | 3.25 ± 0.14
312.8 K, 26300 kPa, w2 = 0.212 | 3.3 ± 0.14
312.8 K, 28100 kPa, w2 = 0.212 | 3.32 ± 0.14
312.8 K, 28400 kPa, w2 = 0.212 | 3.34 ± 0.14
312.8 K, 30800 kPa, w2 = 0.212 | 3.37 ± 0.14
313 K, 9700 kPa, w2 = 0.05 | 1.63 ± 0.14
313 K, 9800 kPa, w2 = 0.05 | 1.64 ± 0.14
313 K, 9900 kPa, w2 = 0.05 | 1.65 ± 0.14
313 K, 11300 kPa, w2 = 0.05 | 1.7 ± 0.14
313 K, 11700 kPa, w2 = 0.05 | 1.7 ± 0.14
313 K, 11800 kPa, w2 = 0.05 | 1.7 ± 0.14
313 K, 13200 kPa, w2 = 0.05 | 1.74 ± 0.14
313 K, 13700 kPa, w2 = 0.05 | 1.74 ± 0.14
313 K, 15100 kPa, w2 = 0.05 | 1.77 ± 0.14
313 K, 15700 kPa, w2 = 0.05 | 1.78 ± 0.14
313 K, 17400 kPa, w2 = 0.05 | 1.8 ± 0.14
313 K, 17500 kPa, w2 = 0.05 | 1.8 ± 0.14
313 K, 19200 kPa, w2 = 0.05 | 1.82 ± 0.14
313 K, 20700 kPa, w2 = 0.05 | 1.83 ± 0.14
313 K, 21600 kPa, w2 = 0.05 | 1.84 ± 0.14
313 K, 23500 kPa, w2 = 0.05 | 1.86 ± 0.14
313 K, 25300 kPa, w2 = 0.05 | 1.87 ± 0.14
313 K, 25400 kPa, w2 = 0.05 | 1.87 ± 0.14
313 K, 27400 kPa, w2 = 0.05 | 1.89 ± 0.14
313 K, 30400 kPa, w2 = 0.05 | 1.91 ± 0.14
313.1 K, 9700 kPa, w2 = 0.1 | 1.98 ± 0.15
313.1 K, 10100 kPa, w2 = 0.152 | 2.37 ± 0.14
313.1 K, 10200 kPa, w2 = 0.1 | 2 ± 0.14
313.1 K, 10900 kPa, w2 = 0.152 | 2.39 ± 0.14
313.1 K, 11000 kPa, w2 = 0.1 | 2.03 ± 0.14
313.1 K, 11800 kPa, w2 = 0.152 | 2.42 ± 0.14
313.1 K, 12000 kPa, w2 = 0.1 | 2.05 ± 0.14
313.1 K, 12700 kPa, w2 = 0.1 | 2.08 ± 0.14
313.1 K, 12700 kPa, w2 = 0.152 | 2.45 ± 0.14
313.1 K, 13100 kPa, w2 = 0.1 | 2.09 ± 0.14
313.1 K, 13700 kPa, w2 = 0.1 | 2.11 ± 0.14
313.1 K, 13800 kPa, w2 = 0.152 | 2.47 ± 0.14
313.1 K, 14600 kPa, w2 = 0.152 | 2.49 ± 0.14
313.1 K, 14800 kPa, w2 = 0.1 | 2.13 ± 0.14
313.1 K, 15700 kPa, w2 = 0.152 | 2.52 ± 0.14
313.1 K, 15800 kPa, w2 = 0.1 | 2.15 ± 0.14
313.1 K, 16800 kPa, w2 = 0.152 | 2.54 ± 0.14
313.1 K, 17000 kPa, w2 = 0.1 | 2.17 ± 0.14
313.1 K, 17700 kPa, w2 = 0.1 | 2.18 ± 0.14
313.1 K, 17800 kPa, w2 = 0.152 | 2.56 ± 0.14
313.1 K, 18800 kPa, w2 = 0.1 | 2.19 ± 0.14
313.1 K, 18800 kPa, w2 = 0.152 | 2.58 ± 0.14
313.1 K, 19500 kPa, w2 = 0.152 | 2.59 ± 0.14
313.1 K, 19800 kPa, w2 = 0.1 | 2.2 ± 0.14
313.1 K, 20800 kPa, w2 = 0.152 | 2.61 ± 0.14
313.1 K, 21600 kPa, w2 = 0.152 | 2.62 ± 0.14
313.1 K, 21900 kPa, w2 = 0.1 | 2.23 ± 0.14
313.1 K, 22100 kPa, w2 = 0.1 | 2.23 ± 0.14
313.1 K, 22400 kPa, w2 = 0.1 | 2.24 ± 0.14
313.1 K, 22600 kPa, w2 = 0.152 | 2.63 ± 0.14
313.1 K, 23500 kPa, w2 = 0.152 | 2.64 ± 0.14
313.1 K, 24100 kPa, w2 = 0.1 | 2.26 ± 0.14
313.1 K, 24400 kPa, w2 = 0.1 | 2.26 ± 0.14
313.1 K, 24500 kPa, w2 = 0.152 | 2.66 ± 0.14
313.1 K, 25500 kPa, w2 = 0.152 | 2.67 ± 0.14
313.1 K, 25800 kPa, w2 = 0.1 | 2.28 ± 0.14
313.1 K, 26400 kPa, w2 = 0.1 | 2.28 ± 0.14
313.1 K, 26500 kPa, w2 = 0.152 | 2.68 ± 0.14
313.1 K, 27500 kPa, w2 = 0.152 | 2.69 ± 0.14
313.1 K, 27700 kPa, w2 = 0.1 | 2.3 ± 0.14
313.1 K, 27800 kPa, w2 = 0.1 | 2.3 ± 0.14
313.1 K, 27900 kPa, w2 = 0.152 | 2.7 ± 0.14
313.1 K, 28300 kPa, w2 = 0.1 | 2.3 ± 0.14
313.1 K, 28400 kPa, w2 = 0.152 | 2.71 ± 0.14
313.1 K, 29300 kPa, w2 = 0.1 | 2.31 ± 0.14
313.1 K, 29300 kPa, w2 = 0.152 | 2.72 ± 0.14
313.1 K, 29500 kPa, w2 = 0.1 | 2.32 ± 0.14
322.4 K, 10500 kPa, w2 = 0.1 | 1.86 ± 0.14
